Test results from patent publication US9890155B2, “Aza-oxo-indoles for the treatment and prophylaxis of respiratory syncytial virus infection” (Hoffmann-La Roche Inc., priority 2013, dated 2018).

tested on: RSV infection; experiment: not given; settings: intramuscularly 15 mg/kg once a month for the RSV season, selected infants; cited from earlier work

Compound | reduction of hospitalization rate caused by RSV infection
palivizumab: a humanized monoclonal antibody against RSV fusion (F) protein approved for prophylaxis in high-risk infants | 45-55%

tested on: RSV Long strain; experiment: Viral Cytopathic Effect (CPE) Assay; assay type: cell-based; settings: human respiratory syncytial virus, 144 h, cell viability after 6 days (Cell Counting kit-8)
Experimental: EC50: the concentration of a compound where 50% of its maximal protection effect against viral induced CPE is observed
LongStrain: an A subtype RSV strain obtained from ATCC with catalog number VR-26
To measure anti-RSV activity of compounds, 96-well plates are seeded with 6×10^3 cells per well in Dulbecco's modified Eagle's medium (DMEM) containing 10% fetal bovine serum (FBS). Cells are infected the next day with sufficient RSV Long strain (ATCC) to produce an approximately 80-90% cytopathic effect after 6 days, in the presence of serial half-log diluted compound in a total volume of 200 μL per well. The viability of cells is assessed after 6 days using Cell Counting kit-8 (Dojindo Molecular Technologies). The absorbance at 450 nm and referenced at 630 nm is measured to determine 50% effective concentration (EC50).

Compound | EC50 [nM]
CS(=O)(=O)c1ccc(-n2c(CN3C(=O)C4(CC4)c4ccncc43)nc3cc(Cl)ccc32)cn1 [Example 4-3, 1′-({5-Chloro-1-[6-(methylsulfonyl)pyridin-3-yl]-1H-benzimidazol-2-yl}methyl)spiro[cyclopropane-1,3′-pyrrolo[2,3-c]pyridin]-2′(1′H)-one] | 4
CS(=O)(=O)c1cccc(-c2c(CN3C(=O)C4(CC4)c4ccncc43)[nH]c3cc(Cl)ccc23)c1 [Example 9-2, 1′-({6-Chloro-3-[3-(methylsulfonyl)phenyl]-1H-indol-2-yl}methyl)spiro[cyclopropane-1,3′-pyrrolo[2,3-c]pyridin]-2′(1′H)-one] | 29
N#Cc1cccc(-n2c(CN3C(=O)C4(CC4)c4ccncc43)nc3cc(Cl)ccc32)c1 [Example 4-7, 3-{5-Chloro-2-[(2′-oxospiro[cyclopropane-1,3′-pyrrolo[2,3-c]pyridin]-1′(2′H)-yl)methyl]-1H-benzimidazol-1-yl}benzonitrile] | 7
CS(=O)(=O)c1cccc(-n2c(CN3C(=O)C4(CC4)c4ccncc43)nc3cc(Cl)ccc32)c1 [Example 4-4, 1′-({5-chloro-1-[3-(methylsulfonyl)phenyl]-1H-benzimidazol-2-yl}methyl)spiro[cyclopropane-1,3′-pyrrolo[2,3-c]pyridin]-2′(1′H)-one] | 8
N#Cc1ccc(-n2c(CN3C(=O)C4(CC4)c4ccncc43)nc3cc(Cl)ccc32)cn1 [Example 1, 5-{5-Chloro-2-[(2′-oxospiro[cyclopropane-1,3′-pyrrolo[2,3-c]pyridin]-1′(2′H)-yl)methyl]-1H-benzimidazol-1-yl}pyridine-2-carbonitrile] | 0.7
CS(=O)(=O)c1cc(-n2c(CN3C(=O)C4(CC4)c4ccncc43)nc3cc(Cl)ccc32)ccn1 [Example 2-1, 1′-({5-Chloro-1-[2-(methylsulfonyl)pyridin-4-yl]-1H-benzimidazol-2-yl}methyl)spiro[cyclopropane-1,3′-pyrrolo[2,3-c]pyridin]-2′(1′H)-one] | 65
NC(=O)c1ccc(-n2c(CN3C(=O)C4(CC4)c4ccncc43)nc3cc(Cl)ccc32)cc1 [Example 7, 4-{5-Chloro-2-[(2′-oxospiro[cyclopropane-1,3′-pyrrolo[2,3-c]pyridin]-1′(2′H)-yl)methyl]-1H-benzimidazol-1-yl}benzamide] | 13
CCOC(=O)c1ccc(-n2c(CN3C(=O)C4(CC4)c4ccncc43)nc3cc(Cl)ccc32)cc1 [Example 4-2, Ethyl 4-{5-chloro-2-[(2′-oxospiro[cyclopropane-1,3′-pyrrolo[2,3-c]pyridin]-1′(2′H)-yl)methyl]-1H-benzimidazol-1-yl}benzoate] | 6
CS(=O)(=O)c1cncc(-n2c(CN3C(=O)C4(CC4)c4ccncc43)nc3cc(Cl)ccc32)c1 [Example 5-1, 1′-({5-Chloro-1-[5-(methylsulfonyl)pyridin-3-yl]-1H-benzimidazol-2-yl}methyl)spiro[cyclopropane-1,3′-pyrrolo[2,3-c]pyridin]-2′(1H)-one] | 5
Cc1cc(-n2c(CN3C(=O)C4(CC4)c4ccncc43)nc3cc(Cl)ccc32)cc(S(C)(=O)=O)c1 [Example 5-3, 1′-({5-Chloro-1-[3-methyl-5-(methylsulfonyl)phenyl]-1H-benzimidazol-2-yl}methyl)spiro[cyclopropane-1,3′-pyrrolo[2,3-c]pyridin]-2′(1′H)-one] | 19
CS(=O)(=O)c1ccc(-c2c(CN3C(=O)C4(CC4)c4ccncc43)[nH]c3cc(Cl)ccc23)cc1 [Example 9-1, 1′-({6-Chloro-3-[4-(methylsulfonyl)phenyl]-1H-indol-2-yl}methyl)spiro[cyclopropane-1,3′-pyrrolo[2,3-c]pyridin]-2′(1′H)-one] | 25
CS(=O)(=O)c1cccc(-n2c(CN3C(=O)C4(CC4)c4ccncc43)nc3cc(Cl)ccc32)n1 [Example 5-2, 1′-({5-Chloro-1-[6-(methylsulfonyl)pyridin-2-yl]-1H-benzimidazol-2-yl}methyl)spiro[cyclopropane-1,3′-pyrrolo[2,3-c]pyridin]-2′(1′H)-one] | 5
CCS(=O)(=O)c1ccnc(-n2c(CN3C(=O)C4(CC4)c4ccncc43)nc3cc(Cl)ccc32)c1 [Example 2-2, 1′-({5-Chloro-1-[4-(ethylsulfonyl)pyridin-2-yl]-1H-benzimidazol-2-yl}methyl)spiro[cyclopropane-1,3′-pyrrolo[2,3-c]pyridin]-2′(1′H)-one] | 21
O=C(O)c1cccc(-n2c(CN3C(=O)C4(CC4)c4ccncc43)nc3cc(Cl)ccc32)c1 [Example 6-2, 3-{5-Chloro-2-[(2′-oxospiro[cyclopropane-1,3′-pyrrolo[2,3-c]pyridin]-1′(2′H)-yl)methyl]-1H-benzimidazol-1-yl}benzoic acid] | 512
CS(=O)(=O)c1ccc(-n2c(CN3C(=O)C4(CC4)c4ccncc43)nc3cc(Cl)ccc32)cc1 [Example 4-5, 1′-({5-Chloro-1-[4-(methylsulfonyl)phenyl]-1H-benzimidazol-2-yl}methyl)spiro[cyclopropane-1,3′-pyrrolo[2,3-c]pyridin]-2′(1′H)-one] | 5
COC(=O)c1cccc(-n2c(CN3C(=O)C4(CC4)c4ccncc43)nc3cc(Cl)ccc32)c1 [Example 4-6, Methyl 3-{5-chloro-2-[(2′-oxospiro[cyclopropane-1,3′-pyrrolo[2,3-c]pyridin]-1′(2′H)-yl)methyl]-1H-benzimidazol-1-yl}benzoate] | 16
CC(=O)c1cccc(-n2c(CN3C(=O)C4(CC4)c4ccncc43)nc3cc(Cl)ccc32)c1 [Example 4-8, 1′-{[1-(3-Acetylphenyl)-5-chloro-1H-benzimidazol-2-yl]methyl}spiro[cyclopropane-1,3′-pyrrolo[2,3-c]pyridin]-2′(1′H)-one] | 19
CCOC(=O)Cc1ccc(-n2c(CN3C(=O)C4(CC4)c4ccncc43)nc3cc(Cl)ccc32)cc1 [Example 3, Ethyl(4-{5-chloro-2-[(2′-oxospiro[cyclopropane-1,3′-pyrrolo[2,3-c]pyridin]-1′(2′H)-yl)methyl]-1H-benzimidazol-1-yl}phenyl)acetate] | 14
O=C(O)c1ccc(-n2c(CN3C(=O)C4(CC4)c4ccncc43)nc3cc(Cl)ccc32)cc1 [Example 6-1, 4-{5-Chloro-2-[(2′-oxospiro[cyclopropane-1,3′-pyrrolo[2,3-c]pyridin]-1′(2′H)-yl)methyl]-1H-benzimidazol-1-yl}benzoic acid] | 6
O=C(O)c1ccc(-n2c(CN3C(=O)C4(CC4)c4ccc(F)cc43)nc3cc(Cl)ccc32)cc1 [Example 6-3, 4-{5-Chloro-2-[(6′-fluoro-2′-oxospiro[cyclopropane-1,3′-indol]-1′(2′H)-yl)methyl]-1H-benzimidazol-1-yl}benzoic acid] | 50
O=C1N(Cc2nc3cc(Cl)ccc3n2-c2ccc(O)nc2)c2cnccc2C12CC2 [Example 8, 1′-{[5-Chloro-1-(6-hydroxypyridin-3-yl)-1H-benzimidazol-2-yl]methyl}spiro[cyclopropane-1,3′-pyrrolo[2,3-c]pyridin]-2′(1′H)-one] | 18
COc1ccc(-n2c(CN3C(=O)C4(CC4)c4ccncc43)nc3cc(Cl)ccc32)cn1 [Example 4-9, 1′-{[5-Chloro-1-(6-methoxypyridin-3-yl)-1H-benzimidazol-2-yl]methyl}spiro[cyclopropane-1,3′-pyrrolo[2,3-c]pyridin]-2′(1′H)-one] | 11
O=C1N(Cc2nc3cc(Cl)ccc3n2-c2ccccc2)c2cnccc2C12CC2 [Example 4-1, 1′-[(5-Chloro-1-phenyl-1H-benzimidazol-2-yl)methyl]spiro[cyclopropane-1,3′-pyrrolo[2,3-c]pyridin]-2′(1′H)-one] | 17
